Legend:
[1] = system: P. aeruginosa MB9798 (efflux WT, IMP-1); assay: Efflux: concentration of MBL inhibitor restoring susceptibility to imipenem (MITC95), efflux+ strain; type: cell-based, Pseudomonas aeruginosa; details: imipenem at 2 μg/mL in the presence of a class A, C, D serine β-lactamase inhibitor closely related to relebactam
Excerpt: (§1) In order to assess the contribution of efflux to lack of whole cell inhibition of metallo-beta-lactamase inhibitors of formula I, tool strains were constructed. The strain background is Pseudomonas aeruginosa PAO1. A wild-type (MB5919) and an isogenic strain in which multiple efflux pumps have been disrupted genetically were used. The MBL IMP-1, obtained from a clinical isolate was introduced into the strain pair by the following process:
(§2) Plasmid DNA (encoding IMP-1) was extracted from CL 5673 (IMP-1, P. aeruginosa clinical strain) by standard techniques. The plasmid DNA was transformed into parental MB5919 (oprD+, efflux+, inducible AmpC) and MB5890 (oprD+, efflux−, inducible AmpC) isogenic strains by electroporation. These transformed strains were plated onto cation-adjusted Muller-Hinton agar plates containing ceftazidime at 32 μg/mL (MB5919) and 16 μg/mL (MB5890) to select for those cells in which the IMP-1-expressing plasmid was introduced successfully, resulting in resistance to ceftazidime. Agarose-gel electrophoresis of PCR product for IMP-1 from the successful transformants was used to compare to control and to the original strain from which the plasmid was obtained, confirming transfer of the IMP-1 gene (data not shown).
(§3) The strain set was then used as a pair to determine the effect of metallo-β-lactamase inhibitors of Formula Ion the MIC of imipenem and/or ceftazidime. A fixed concentration of antibiotic is included in standard microbroth MIC tests, usually at the CLSI breakpoint concentration. A fixed amount of a class A/C beta-lactamase inhibitor is also included to inhibit the resident Pseudomonas AmpC enzyme. A serial titration of the metallo-β-lactamase inhibitor was included and the concentration of metallo-β-lactamase inhibitor which restores susceptibility of the strain to the included antibiotic was recorded. That concentration of metallo-β-lactamase inhibitor was then compared between the two strains to determine the fold difference between the efflux+(MB9798) and efflux−(MB9799) strains, which indicates n the extent to which the MBLi is subject to efflux.

[2] = system: Escherichia coli expressing NDM-1 (CLB30016); assay: Antibiotic potentiation activity: synergistic concentration (MITC95) with imipenem; type: cell-based; details: imipenem 1 μg/mL; lowest concentration inhibiting 95% of growth; 35° C., 22-24 hours
Description: (§4) The bacterial strains tested included the clinical strains Escherichia coli expressing NDM-1 (CLB30005, CLB30016), Serratia marcescens expressing IMP-1 (CL5741), and Klebsiella pneumoniae expressing VIM-1 (IHMA599644). Inhibitor activity was measured in the presence and absence of imipenem in a 384-well microplate.
(§5) The clinical strains CLB30016, CL5741 and IHMA599644 were grown on trypticase soy agar containing 5% sheep's blood. The bacteria on agar plates were incubated at 35° C. with humidity overnight. The following day, individual colonies from each clinical strain were picked and resuspended in 5 mL saline to attain an OD600 of 0.14, 0.11, 0.15 and 0.13, for CLB30016, CL5741 and IHMA599644, respectively. These were further diluted 1:100 into 1.1× CAMHB and used to inoculate the test wells as described below.
(§6) Imipenem in 10 mM 3-(N-morpholino)propanesulfonic acid (MOPS, pH 7) was stored in single use aliquots at −80° C. […] On the day of the assay, 4 μl of antibiotic was added to 45 μl of bacteria followed by 1 μl of test compound and mixed by pipetting and with an orbital shaker. The concentration of antibiotic used in the assay was 1 μg/mL. Microplates were covered and incubated at 35° C. for 22 hours to 24 hours. At the end of the incubation, absorbance was determined using a spectrophotometer. The synergistic concentration of MBLI was determined by identifying the lowest concentration of test compound in the presence of a given concentration of antibiotic that was required to inhibit 95% of the growth of the bacteria. The results for Examples 1-209 are reported in Table 1, expressed as the concentration of compound that potentiated the action of antibiotic (imipenem) affecting 95% inhibition of bacterial growth (MITC95).

[3] = system: Serratia marcescens expressing IMP-1 (CL5741); assay: as above; type: cell-based; details: imipenem 1 μg/mL; lowest concentration inhibiting 95% of growth; 35° C., 22-24 hours
Description: as §4, §5, §6

[4] = system: Klebsiella pneumoniae expressing VIM-1 (IHMA599644); assay: as above; type: cell-based; details: imipenem 1 μg/mL; lowest concentration inhibiting 95% of growth; 35° C., 22-24 hours
Description: as §4, §5, §6

VIM-1 = VIM-1 (Pseudomonas aeruginosa, UniProt A0A0F7KYQ8); assay: Enzyme activity: determination of IC50, fluorescence assay with CCF2-FA substrate (VIM-1); type: biochemical; details: 30 pM enzyme, 1.25 μM CCF2-FA, 2 hours at 25° C.; read-out: VIM1 IC50
Description: (§7) The Class B enzyme activities were measured in the presence of the test inhibitor in a fluorescence assay against a commercially available substrate consisting of a cephalosporin core linking 7-hydroxycoumarin to fluorescein (CCF2-FA). The enzyme (NDM-1, IMP-1 or VIM-1) and the substrate were diluted in 100 mM KH2PO4 buffer (pH 7) containing 0.005% Tween-20 and 10 μM ZnSO4. In the assay, the final concentration of enzyme was 1 pM, 2 pM and 30 pM for NDM-1, IMP-1 and VIM-1, respectively, and the final concentration of CCF2-FA was 1.25 μM. The test inhibitor was dissolved in dimethylsulfoxide and diluted 1:50 in the assay, resulting in a final concentration range of 20 μM to 0.00063 μM. In a 384-well microplate, the test inhibitor was incubated with the metallo-β-lactamase enzyme and the substrate for 2 hours at 25° C. Fluorescence at 460 nm following excitation at 405 nm was measured. The IC50 value was determined from semi-logarithmic plots of enzyme inhibition versus inhibitor concentration, with a curve generated using a 4-parameter fit.

VIM-2 = VIM-2 (Escherichia coli, UniProt Q5U7L7); assay: Enzyme activity: determination of IC50 (VIM-2); type: biochemical; details: read-out: VIM2 IC50
[5] = system: P. aeruginosa MB9799 (efflux mutant, IMP-1); assay: Efflux: concentration of MBL inhibitor restoring susceptibility to imipenem (MITC95), efflux− strain; type: cell-based, Pseudomonas aeruginosa; details: imipenem at 2 μg/mL in the presence of a class A, C, D serine β-lactamase inhibitor closely related to relebactam
Excerpt: as §1, §2, §3

NDM-1 = NDM-1 (Klebsiella pneumoniae, UniProt C7C422); assay: Enzyme activity: determination of IC50, fluorescence assay with CCF2-FA substrate (NDM-1); type: biochemical; details: 1 pM enzyme, 1.25 μM CCF2-FA, 2 hours at 25° C.; read-out: NDM1 IC50
NDM-1, sequence (C7C422 29-270, looked up, species assumed): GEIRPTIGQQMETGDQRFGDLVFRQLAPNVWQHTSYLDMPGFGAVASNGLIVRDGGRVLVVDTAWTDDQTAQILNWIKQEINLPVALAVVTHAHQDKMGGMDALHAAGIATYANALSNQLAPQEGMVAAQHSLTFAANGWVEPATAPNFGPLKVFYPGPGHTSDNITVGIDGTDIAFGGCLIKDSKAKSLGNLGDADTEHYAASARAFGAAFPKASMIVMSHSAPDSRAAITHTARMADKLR
Description: as §7

IMP-1 = IMP-1 (Serratia marcescens, UniProt P52699); assay: Enzyme activity: determination of IC50, fluorescence assay with CCF2-FA substrate (IMP-1); type: biochemical; details: 2 pM enzyme, 1.25 μM CCF2-FA, 2 hours at 25° C.; read-out: IMP1 IC50
IMP-1, sequence (P52699 19-246, looked up, species assumed): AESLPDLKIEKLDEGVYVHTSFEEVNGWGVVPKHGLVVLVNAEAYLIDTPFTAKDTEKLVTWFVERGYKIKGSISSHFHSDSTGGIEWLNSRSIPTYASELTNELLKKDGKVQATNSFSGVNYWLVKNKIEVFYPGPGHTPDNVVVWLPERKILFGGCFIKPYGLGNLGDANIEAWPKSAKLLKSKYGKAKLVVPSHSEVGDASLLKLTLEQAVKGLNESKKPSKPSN
Description: as §7

| SMILES | MB9798 MITC95 P. aeruginosa Efflux WT [1] | CLB30016 E.coli MITC95 NDM [2] | CL5741 S.marcescens MITC95 uM IMP [3] | IHMA599644 K.pneumoniae MITC95 uM VIM [4] | IC50 (VIM-1) | IC50 (VIM-2) | MB9799 MITC95 P. aeruginosa Efflux Mutant [5] | IC50 (NDM-1) | IC50 (IMP-1) |
| --- | --- | --- | --- | --- | --- | --- | --- | --- | --- |
| NS(=O)(=O)c1c(S(=O)(=O)N[C@@H]2CCNC2)ccc(N2CCc3nc(O)ccc3C2)c1-c1nnn[nH]1 [Example 25, 4-(2-hydroxy-7,8-dihydro-1,6-naphthyridin-6(5H)-yl)-N1-[(3R)-pyrrolidin-3-yl]-3-(1H-tetrazol-5-yl)benzene-1,2-disulfonamide] | 6.25 µM | 0.39 µM | 0.78 µM | 1.56 µM | 1.1 nM | 4.79 nM | 0.78 µM | 3.09 nM | 6.11 nM |
| NS(=O)(=O)c1c(S(=O)(=O)N[C@@H]2CCNC2)ccc(N2CCc3[nH]ncc3C2)c1-c1nnn[nH]1 [Example 30, N1-[(3R)-pyrrolidin-3-yl]-4-(1,4,6,7-tetrahydro-5H-pyrazolo[4,3-c]pyridin-5-yl)-3-(1H-tetrazol-5-yl)benzene-1,2-disulfonamide] | 6.25 µM | 0.78 µM | 1.56 µM | 6.25 µM | 0.25 nM | 0.98 nM | 1.56 µM | 0.19 nM | 1.11 nM |
| NCCNS(=O)(=O)c1ccc(N2CCCn3ccnc32)c(-c2nn[nH]n2)c1S(N)(=O)=O [Example 12, N1-(2-aminoethyl)-4-(6,7-dihydroimidazo[1,2-a]pyrimidin-8(5H)-yl)-3-(2H-tetrazol-5-yl)benzene-1,2-disulfonamide] | 0.78 µM | 0.05 µM | 0.20 µM | 0.39 µM | 0.6 nM | 2.17 nM | 0.20 µM | 1.58 nM | 4.69 nM |
| NS(=O)(=O)c1c(S(=O)(=O)N[C@@H]2CCNC2)ccc(N2CCCn3ncnc32)c1-c1nnn[nH]1 [Example 8, (R)-4-(6,7-dihydro-[1,2,4]triazolo[1,5-a]pyrimidin-4(5H)-yl)-N1-(pyrrolidin-3-yl)-3-(1H-tetrazol-5-yl)benzene-1,2-disulfonamide] | 3.13 µM | 3.13 µM | 6.25 µM | 12.50 µM | 0.2 nM | 1.09 nM | 6.25 µM | 0.47 nM | 6.63 nM |
| NC[C@H](O)CNS(=O)(=O)c1ccc(N2CCCn3ccnc32)c(-c2nnn[nH]2)c1S(N)(=O)=O [Example 18, (S)-N1-(3-amino-2-hydroxypropyl)-4-(6,7-dihydroimidazo[1,2-a]pyrimidin-8(5H)-yl)-3-(1H-tetrazol-5-yl)benzene-1,2-disulfonamide] | 3.13 µM | 0.10 µM | 0.39 µM | 1.56 µM | 0.76 nM | 1.99 nM | 0.78 µM | 1.87 nM | 8.07 nM |
| Nc1nc2c(s1)CN(c1ccc(S(=O)(=O)N[C@@H]3CCNC3)c(S(N)(=O)=O)c1-c1nnn[nH]1)CC2 [Example 29, 4-(2-amino-6,7-dihydro[1,3]thiazolo[5,4-c]pyridin-5(4H)-yl)-N1-[(3R)-pyrrolidin-3-yl]-3-(1H-tetrazol-5-yl)benzene-1,2-disulfonamide] | 25.00 µM | 1.56 µM | 1.56 µM | 12.50 µM | 8.27 nM | 32.8 nM | 0.78 µM | 6.28 nM | 7.11 nM |
| NS(=O)(=O)c1c(S(=O)(=O)N[C@@H]2CCNC2)ccc(N2CCc3cccnc3C2)c1-c1nnn[nH]1 [Example 23, 4-(5,8-dihydro-1,7-naphthyridin-7(6H)-yl)-N1-[(3R)-pyrrolidin-3-yl]-3-(1H-tetrazol-5-yl)benzene-1,2-disulfonamide] | 50.00 µM | 3.13 µM | 12.50 µM | 12.50 µM | 21 nM | 39 nM | 6.25 µM | 24.3 nM | 43.9 nM |
| NS(=O)(=O)c1c(S(=O)(=O)N[C@@H]2CCNC2)ccc(N2CCc3[nH]nnc3C2)c1-c1nnn[nH]1 [Example 26, N1-[(3R)-pyrrolidin-3-yl]-4-(1,4,6,7-tetrahydro-5H-[1,2,3]triazolo[4,5-c]pyridin-5-yl)-3-(1H-tetrazol-5-yl)benzene-1,2-disulfonamide] | 6.25 µM | 0.78 µM | 1.56 µM | 3.13 µM | 1.75 nM | 5.08 nM | 0.78 µM | 2.14 nM | 5.97 nM |
| NCC(CN)NS(=O)(=O)c1ccc(N2CCCn3ccnc32)c(-c2nn[nH]n2)c1S(N)(=O)=O [Example 11, N1-(1,3-diaminopropan-2-yl)-4-(6,7-dihydroimidazo[1,2-a]pyrimidin-8(5H)-yl)-3-(2H-tetrazol-5-yl)benzene-1,2-disulfonamide] | 2.34 µM | 0.20 µM | 0.78 µM | 1.56 µM | 1.26 nM | 3.71 nM | 1.17 µM | 1.95 nM | 4.55 nM |
